Reference: US20260027116A1, “Methods of Treating Chronic Graft-Versus-Host Disease Following Allogeneic Hematopoietic Stem Cell Transplantation” (Kadmon Corporation, LLC, priority 2022, published 2026)

Columns and labels:
BCRP = biological target: T1, BCRP (Homo sapiens, UniProt Q9UNQ0); experiment: transporter inhibition in vitro; format: in vitro ADME; conditions: at clinically relevant concentrations
T1 sequence (Q9UNQ0 1-655): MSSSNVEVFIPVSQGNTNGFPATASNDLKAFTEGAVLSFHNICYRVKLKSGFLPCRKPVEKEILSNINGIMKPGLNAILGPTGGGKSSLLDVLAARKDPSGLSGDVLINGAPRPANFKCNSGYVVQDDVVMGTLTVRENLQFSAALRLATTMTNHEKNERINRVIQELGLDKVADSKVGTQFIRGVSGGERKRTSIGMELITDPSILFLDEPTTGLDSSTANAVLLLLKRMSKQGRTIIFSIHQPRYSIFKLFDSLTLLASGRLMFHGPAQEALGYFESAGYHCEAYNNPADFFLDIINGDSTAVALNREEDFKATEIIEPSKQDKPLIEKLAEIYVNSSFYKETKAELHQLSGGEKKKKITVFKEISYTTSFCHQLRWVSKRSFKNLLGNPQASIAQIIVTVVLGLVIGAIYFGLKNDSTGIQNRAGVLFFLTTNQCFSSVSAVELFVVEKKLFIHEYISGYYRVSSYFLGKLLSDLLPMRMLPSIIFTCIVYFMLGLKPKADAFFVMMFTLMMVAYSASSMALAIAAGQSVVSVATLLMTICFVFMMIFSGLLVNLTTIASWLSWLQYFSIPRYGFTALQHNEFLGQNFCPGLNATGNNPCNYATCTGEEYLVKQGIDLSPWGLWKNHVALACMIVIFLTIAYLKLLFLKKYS

P-gp = P-gp (Homo sapiens, UniProt P08183); experiment: transporter inhibition in vitro; format: in vitro ADME; conditions: at clinically relevant concentrations
patients with cGVHD = experiment: Example 2: safety, adverse events, relative dose intensity; format: in vivo; conditions: for Cough / Diarrhea / Dyspnea / Fatigue / Headache / Muscle spasms / Nausea / Peripheral edema / Upper respiratory tract infection / Vomiting: All grades
Procedure: All responses were assessed by the study site investigators.

Sequence of P-gp (P08183 whole entry): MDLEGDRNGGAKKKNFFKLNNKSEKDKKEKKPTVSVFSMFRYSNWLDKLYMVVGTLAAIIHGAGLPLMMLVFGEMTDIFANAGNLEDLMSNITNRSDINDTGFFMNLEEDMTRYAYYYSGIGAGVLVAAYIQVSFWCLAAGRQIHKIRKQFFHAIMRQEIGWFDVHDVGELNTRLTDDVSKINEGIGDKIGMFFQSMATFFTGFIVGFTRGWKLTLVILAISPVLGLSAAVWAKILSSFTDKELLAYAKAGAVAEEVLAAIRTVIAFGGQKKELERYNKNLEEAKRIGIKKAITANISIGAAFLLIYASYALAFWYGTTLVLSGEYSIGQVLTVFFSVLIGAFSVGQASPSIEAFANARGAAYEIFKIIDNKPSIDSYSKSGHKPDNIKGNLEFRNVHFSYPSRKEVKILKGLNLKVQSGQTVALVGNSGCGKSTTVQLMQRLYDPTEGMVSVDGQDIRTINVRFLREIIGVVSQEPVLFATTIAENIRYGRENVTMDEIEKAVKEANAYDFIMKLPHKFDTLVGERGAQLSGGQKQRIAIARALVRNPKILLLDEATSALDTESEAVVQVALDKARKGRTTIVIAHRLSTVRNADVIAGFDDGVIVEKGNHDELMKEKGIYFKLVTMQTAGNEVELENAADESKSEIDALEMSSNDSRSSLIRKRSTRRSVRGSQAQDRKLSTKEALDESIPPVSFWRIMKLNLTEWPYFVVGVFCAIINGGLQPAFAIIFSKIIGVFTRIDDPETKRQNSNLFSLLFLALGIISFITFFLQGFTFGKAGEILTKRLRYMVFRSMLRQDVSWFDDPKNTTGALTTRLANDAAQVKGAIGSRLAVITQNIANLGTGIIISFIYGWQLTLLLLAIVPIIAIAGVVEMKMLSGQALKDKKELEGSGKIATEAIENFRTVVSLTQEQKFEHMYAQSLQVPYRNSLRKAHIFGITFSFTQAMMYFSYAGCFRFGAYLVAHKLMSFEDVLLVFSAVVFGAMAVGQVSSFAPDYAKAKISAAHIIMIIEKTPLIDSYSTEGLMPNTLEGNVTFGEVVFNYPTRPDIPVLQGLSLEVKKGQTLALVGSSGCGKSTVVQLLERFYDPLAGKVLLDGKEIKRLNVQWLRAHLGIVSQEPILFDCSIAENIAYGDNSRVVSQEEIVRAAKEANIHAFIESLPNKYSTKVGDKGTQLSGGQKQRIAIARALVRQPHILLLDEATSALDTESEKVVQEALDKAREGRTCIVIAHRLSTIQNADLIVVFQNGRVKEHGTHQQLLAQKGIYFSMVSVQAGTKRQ

In the case of CC(C)NC(=O)COc1cccc(-c2nc(Nc3ccc4[nH]ncc4c3)c3ccccc3n2)c1 [Belumosudil, 2-{3-[4-(1H-indazol-5-ylamino)-2-quinazolinyl]phenoxy}-N-(propan-2-yl) acetamide], the “inhibition of BCRP” value (BCRP) is reported as “inhibits”, the “inhibition of P-gp” value (P-gp) is reported as “inhibits” and the “Any AE” value (patients with cGVHD; 200 mg daily (n = 66)) is reported as 65 (99) n (%). The Deaths (patients with cGVHD; 200 mg daily (n = 66)) was 8 (12) n (%), the “Drug-related AEs” value (patients with cGVHD; 200 mg daily (n = 66)) was 49 (74) n (%) and the “Drug-related SAEs” value (patients with cGVHD; 200 mg daily (n = 66)) was 5 (8) n (%). The “Grade ≥ 3 AEs” value (patients with cGVHD; 200 mg daily (n = 66)) was 37 (56) n (%), the “Liver-related AEs” value (patients with cGVHD; 200 mg daily (n = 66)) was 12 (18) n (%) and the SAEs (patients with cGVHD; 200 mg daily (n = 66)) was 27 (41) n (%). The “Any AE” value (patients with cGVHD; 200 mg twice daily (n = 66)) was 66 (100) n (%), the Deaths (patients with cGVHD; 200 mg twice daily (n = 66)) was 6 (9) n (%) and the “Drug-related AEs” value (patients with cGVHD; 200 mg twice daily (n = 66)) was 40 (61) n (%). The “Drug-related SAEs” value (patients with cGVHD; 200 mg twice daily (n = 66)) was 2 (3) n (%), the “Grade ≥ 3 AEs” value (patients with cGVHD; 200 mg twice daily (n = 66)) was 34 (52) n (%) and the “Liver-related AEs” value (patients with cGVHD; 200 mg twice daily (n = 66)) was 19 (29) n (%). For the same molecule, the SAEs (patients with cGVHD; 200 mg twice daily (n = 66)) was 23 (35) n (%), the Cough (patients with cGVHD; 200 mg daily (n = 66)) was 20 (30) n (%) and the Diarrhea (patients with cGVHD; 200 mg daily (n = 66)) was 23 (35) n (%). The Dyspnea (patients with cGVHD; 200 mg daily (n = 66)) was 21 (32) n (%), the Fatigue (patients with cGVHD; 200 mg daily (n = 66)) was 30 (46) n (%) and the Headache (patients with cGVHD; 200 mg daily (n = 66)) was 13 (20) n (%). For the same molecule, the Muscle spasms (patients with cGVHD; 200 mg daily (n = 66)) was 13 (20) n (%), the Nausea (patients with cGVHD; 200 mg daily (n = 66)) was 23 (35) n (%) and the Peripheral edema (patients with cGVHD; 200 mg daily (n = 66)) was 17 (26) n (%). For the same molecule, the “Upper respiratory tract infection” value (patients with cGVHD; 200 mg daily (n = 66)) was 17 (26) n (%), the Vomiting (patients with cGVHD; 200 mg daily (n = 66)) was 18 (27) n (%) and the Cough (patients with cGVHD; 200 mg twice daily (n = 66)) was 17 (26) n (%). The Diarrhea (patients with cGVHD; 200 mg twice daily (n = 66)) was 21 (32) n (%), the Dyspnea (patients with cGVHD; 200 mg twice daily (n = 66)) was 12 (18) n (%) and the Fatigue (patients with cGVHD; 200 mg twice daily (n = 66)) was 20 (30) n (%). For the same molecule, the Headache (patients with cGVHD; 200 mg twice daily (n = 66)) was 18 (27) n (%), the Muscle spasms (patients with cGVHD; 200 mg twice daily (n = 66)) was 13 (20) n (%) and the Nausea (patients with cGVHD; 200 mg twice daily (n = 66)) was 18 (27) n (%). For the same molecule, the Peripheral edema (patients with cGVHD; 200 mg twice daily (n = 66)) was 13 (20) n (%), the “Upper respiratory tract infection” value (patients with cGVHD; 200 mg twice daily (n = 66)) was 18 (27) n (%) and the Vomiting (patients with cGVHD; 200 mg twice daily (n = 66)) was 10 (15) n (%). The Cough (patients with cGVHD; Total (N = 132)) was 37 (28) n (%), the Diarrhea (patients with cGVHD; Total (N = 132)) was 44 (33) n (%) and the Dyspnea (patients with cGVHD; Total (N = 132)) was 33 (25) n (%). The Fatigue (patients with cGVHD; Total (N = 132)) was 50 (38) n (%), the Headache (patients with cGVHD; Total (N = 132)) was 31 (24) n (%) and the Muscle spasms (patients with cGVHD; Total (N = 132)) was 26 (20) n (%). For the same molecule, the Nausea (patients with cGVHD; Total (N = 132)) was 41 (31) n (%), the Peripheral edema (patients with cGVHD; Total (N = 132)) was 30 (23) n (%) and the “Upper respiratory tract infection” value (patients with cGVHD; Total (N = 132)) was 35 (27) n (%). For the same molecule, the Vomiting (patients with cGVHD; Total (N = 132)) was 28 (21) n (%), the SAE pneumonia (patients with cGVHD; Example 2) was 7% and the “deaths from multiorgan failure and infection possibly related to belumosudil” value (patients with cGVHD; Example 2) was 2. The “grade 3 or 4 hyperglycemia” value (patients with cGVHD; Example 2) was 5%, the “grade 3 or 4 hypertension” value (patients with cGVHD; Example 2) was 6% and the “grade 3 or 4 pneumonia” value (patients with cGVHD; Example 2) was 8%. For the same molecule, the “grade ≥3 anemia” value (patients with cGVHD; Example 2) was 3%, the “grade ≥3 cytopenias” value (patients with cGVHD; Example 2) was < 4% and the “grade ≥3 neutropenia” value (patients with cGVHD; Example 2) was 2%. The “grade ≥3 thrombocytopenia” value (patients with cGVHD; Example 2) was 2%, the “increased GGT (AE)” value (patients with cGVHD; Example 2) was 12% and the “median RDI” value (patients with cGVHD; Example 2) was 99.7%. For the same molecule, the “subjects who died during the study” value (patients with cGVHD; Example 2) was “Fourteen”, the “subjects who discontinued because of overall AEs” value (patients with cGVHD; Example 2) was 21% and the “subjects who discontinued because of possible drug-related AEs” value (patients with cGVHD; Example 2) was 12%. The “subjects who discontinued because of progression of cGVHD” value (patients with cGVHD; Example 2) was 16%, the “subjects who discontinued because of progression of underlying malignant disease” value (patients with cGVHD; Example 2) was 4% and the “subjects who received an RDI >95%” value (patients with cGVHD; Example 2) was “Eighty-one”. For the same molecule, the “subjects with increased liver function tests (LFTs)” value (patients with cGVHD; Example 2) was “Twenty-four” and the “subjects with ≥1 SAE” value (patients with cGVHD; Example 2) was “Thirty eight”.
